From the CheMixHub ionic liquid set

Assay: xn = mol fraction of the nth substance listed

CC(O)C(=O)[O-].C[N+](C)(C)CCO + O
101 kPa
Settings | viscosity [mPa·s]
293.15 K, x2 = 0.0272 | 5800
293.15 K, x2 = 0.5026 | 174.9
293.15 K, x2 = 0.7993 | 26.26
293.15 K, x2 = 0.8998 | 7.312
298.15 K, x2 = 0 | 559
298.15 K, x2 = 0.4038 | 187.4
298.15 K, x2 = 0.5858 | 87.96
298.15 K, x2 = 0.7993 | 20.92
303.15 K, x2 = 0.0992 | 308.5
308.15 K, x2 = 0.3008 | 144.2
308.15 K, x2 = 0.8998 | 4.497
313.15 K, x2 = 0.8998 | 3.897
318.15 K, x2 = 0.7993 | 9.616
323.15 K, x2 = 0.701 | 15.61
323.15 K, x2 = 0.7993 | 8.175
328.15 K, x2 = 0.7993 | 7.029
333.15 K, x2 = 0.2048 | 52.54
333.15 K, x2 = 0.3008 | 43.97
333.15 K, x2 = 0.701 | 11.18
348.15 K, x2 = 0.8998 | 1.767
353.15 K, x2 = 0.0992 | 30
353.15 K, x2 = 0.7993 | 3.729
353.15 K, x2 = 0.8998 | 1.614

CCC(=O)[O-].COCCn1cc[n+](C)c1 + O
100 kPa
Settings | electrical conductivity [S/m] | viscosity [mPa·s]
288.15 K, x1 = 0.8302 | 0.318 | 81.8
288.15 K, x1 = 0.8877 | 0.241 | 96.6
288.15 K, x1 = 1 | 0.109 | 125.5
293.15 K, x1 = 0.9474 | 0.222 | 84.9
298.15 K, x1 = 0.8302 | 0.426 | 46.94
298.15 K, x1 = 0.9474 | 0.285 | 63.84
298.15 K, x1 = 1 | 0.228 | 70.11
303.15 K, x1 = 0.8579 | 0.483 | 39.8
313.15 K, x1 = 0.9474 | 0.588 | 31.35
318.15 K, x1 = 0.8579 | 0.839 | 20
318.15 K, x1 = 0.9474 | 0.726 | 24.42

CCCCCCCCCC(=O)[O-].CCCCCCCCCCCCCC[P+](CCCCCC)(CCCCCC)CCCCCC + O
Settings | viscosity [mPa·s]
358.15 K, 100 kPa, x2 = 0.872 | 9.345

CCCCCC[n+]1ccccc1.N#C[N-]C#N + O
100 kPa
Settings | electrical conductivity [S/m] | viscosity [mPa·s]
298.15 K, x1 = 0.9308 | – | 50.4
298.15 K, x1 = 0.9582 | 0.494 | –
298.15 K, x1 = 0.9762 | 0.477 | –
298.15 K, x2 = 0.01463 | – | 56.3
303.15 K, x1 = 0.9663 | – | 43.33
308.15 K, x1 = 0.924 | 0.796 | –
318.15 K, x1 = 0.9146 | – | 22.52
318.15 K, x1 = 0.9409 | 1.09 | –
318.15 K, x1 = 0.9663 | – | 24.43
328.15 K, x1 = 0.9146 | – | 15.96
328.15 K, x1 = 0.924 | 1.47 | –
328.15 K, x1 = 0.9487 | – | 16.85
328.15 K, x1 = 0.9762 | 1.35 | –
338.15 K, x1 = 0.9075 | 1.94 | –
338.15 K, x1 = 0.9146 | – | 12.16
338.15 K, x1 = 0.9409 | 1.85 | –
338.15 K, x2 = 0.01463 | – | 13.8

CCCC[n+]1ccc(C)cc1.N#C[S-] + O
101 kPa
Settings | viscosity [mPa·s]
298.15 K, x2 = 0.0564 | 74.9
298.15 K, x2 = 0.9714 | 1.58
308.15 K, x2 = 0.6364 | 10.02
308.15 K, x2 = 0.9714 | 1.24
318.15 K, x1 = 0.0076 | 0.73
318.15 K, x2 = 0 | 33.9
318.15 K, x2 = 0.9714 | 1.01
328.15 K, x2 = 0.9028 | 1.71
328.15 K, x2 = 0.957 | 1.01
328.15 K, x2 = 0.9714 | 0.84
338.15 K, x2 = 0 | 17.3
338.15 K, x2 = 0.1655 | 12.9
338.15 K, x2 = 0.3797 | 8.38
338.15 K, x2 = 0.4628 | 7.17
338.15 K, x2 = 0.5669 | 5.54
338.15 K, x2 = 0.7623 | 2.94
338.15 K, x2 = 0.9714 | 0.73
348.15 K, x2 = 0.1655 | 9.89
348.15 K, x2 = 0.5669 | 4.45
348.15 K, x2 = 0.957 | 0.75

CCCC[n+]1cccc(C)c1.N#C[N-]C#N + O
298.15 K, 101 kPa
Settings | electrical conductivity [S/m]
x1 = 0.0001676 | 0.072
x1 = 0.0003333 | 0.132
x1 = 0.0004971 | 0.18
x1 = 0.0007203 | 0.265
x1 = 0.0009901 | 0.347
x1 = 0.001245 | 0.42
x1 = 0.001513 | 0.502
x1 = 0.001757 | 0.558
x1 = 0.002014 | 0.629
x1 = 0.002115 | 0.655
x1 = 0.002344 | 0.698
x1 = 0.002438 | 0.725
x1 = 0.002706 | 0.785
x1 = 0.002941 | 0.824
x1 = 0.00295 | 0.83
x1 = 0.00329 | 0.889
x1 = 0.003543 | 0.944
